This note sets out measurements from patent US20210253642A1, “CALPAIN MODULATORS AND THERAPEUTIC USES THEREOF BACKGROUND” (Blade Therapeutics, Inc., priority 2018, published 2021).

Type in all cases: biochemical
Assay [1] concerns the target T1, Human Cathepsin K (Homo sapiens, UniProt P43235).
T1 construct: purchased
T1 sequence (P43235 115-329): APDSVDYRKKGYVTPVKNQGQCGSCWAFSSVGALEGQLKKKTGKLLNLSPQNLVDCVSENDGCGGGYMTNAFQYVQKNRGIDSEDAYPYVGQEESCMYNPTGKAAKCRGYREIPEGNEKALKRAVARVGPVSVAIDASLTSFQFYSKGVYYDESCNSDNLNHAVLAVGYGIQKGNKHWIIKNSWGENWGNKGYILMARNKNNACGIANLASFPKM
In words: Cathepsin continuous fluorescence inhibition assay. Particulars: Column E; enzyme 10 nM, substrate 1 uM, pH 5.5, 30 minutes pre-incubation with inhibitor. How it is done: (§1) Cathepsin activity and inhibition thereof was assessed by means of a continuous fluorescence assay. All assays were run in 384 well format and utilized peptide substrates that liberate fluorescence upon protease catalyzed cleavage. FLIPR plate readers (Molecular Devices Inc.) were used to monitor reactions and extract initial rates which were then fit (four parameter logistic function) to obtain IC50 values. All enzymes are human. All enzymes and reagents were obtained commercially and are summarized in Tables 1 and 2 below along with assay conditions.

For assay [2], the target named is T2, Human Cathepsin L (Homo sapiens, UniProt P07711).
T2 construct: purchased
T2 sequence (P07711 114-333): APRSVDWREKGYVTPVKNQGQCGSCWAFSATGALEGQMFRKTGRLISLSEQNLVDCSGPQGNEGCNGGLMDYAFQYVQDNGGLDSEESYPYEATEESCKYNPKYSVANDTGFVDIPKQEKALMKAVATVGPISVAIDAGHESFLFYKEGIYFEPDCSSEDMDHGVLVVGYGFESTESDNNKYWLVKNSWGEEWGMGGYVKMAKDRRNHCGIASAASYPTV
Kind of assay: Cathepsin continuous fluorescence inhibition assay. Particulars: Column G; enzyme 0.025 nM, substrate 1 uM, pH 6.0, 30 minutes pre-incubation with inhibitor. How it is done: as §1

For assay [3], the target named is T3, Human Cathepsin S (Homo sapiens, UniProt P25774).
T3 construct: purchased
T3 sequence (P25774 115-331): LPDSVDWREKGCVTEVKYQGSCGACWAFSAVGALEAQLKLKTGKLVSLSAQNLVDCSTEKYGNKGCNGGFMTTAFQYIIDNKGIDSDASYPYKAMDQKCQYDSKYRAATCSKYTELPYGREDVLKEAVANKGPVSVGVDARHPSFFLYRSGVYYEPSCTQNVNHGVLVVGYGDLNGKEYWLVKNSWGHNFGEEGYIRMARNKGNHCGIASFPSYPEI
In words: Cathepsin continuous fluorescence inhibition assay. The conditions noted are these: Column F; enzyme 6 nM, substrate 1 uM, pH 4.5, 30 minutes pre-incubation with inhibitor. How it is done:
as §1

The target of assay [4] is T4, Human Cathepsin B (Homo sapiens, UniProt P07858).
T4 construct: purchased
Kind of assay: Cathepsin continuous fluorescence inhibition assay. Particulars: Column D; enzyme 25 nM, substrate 1 uM, pH 5.0, 30 minutes pre-incubation with inhibitor. The method, then: as §1

Assay [5] deals with T5, Human Calpain 2/NS1 (Homo sapiens, UniProt P17655).
T5 sequence (P17655 1-700): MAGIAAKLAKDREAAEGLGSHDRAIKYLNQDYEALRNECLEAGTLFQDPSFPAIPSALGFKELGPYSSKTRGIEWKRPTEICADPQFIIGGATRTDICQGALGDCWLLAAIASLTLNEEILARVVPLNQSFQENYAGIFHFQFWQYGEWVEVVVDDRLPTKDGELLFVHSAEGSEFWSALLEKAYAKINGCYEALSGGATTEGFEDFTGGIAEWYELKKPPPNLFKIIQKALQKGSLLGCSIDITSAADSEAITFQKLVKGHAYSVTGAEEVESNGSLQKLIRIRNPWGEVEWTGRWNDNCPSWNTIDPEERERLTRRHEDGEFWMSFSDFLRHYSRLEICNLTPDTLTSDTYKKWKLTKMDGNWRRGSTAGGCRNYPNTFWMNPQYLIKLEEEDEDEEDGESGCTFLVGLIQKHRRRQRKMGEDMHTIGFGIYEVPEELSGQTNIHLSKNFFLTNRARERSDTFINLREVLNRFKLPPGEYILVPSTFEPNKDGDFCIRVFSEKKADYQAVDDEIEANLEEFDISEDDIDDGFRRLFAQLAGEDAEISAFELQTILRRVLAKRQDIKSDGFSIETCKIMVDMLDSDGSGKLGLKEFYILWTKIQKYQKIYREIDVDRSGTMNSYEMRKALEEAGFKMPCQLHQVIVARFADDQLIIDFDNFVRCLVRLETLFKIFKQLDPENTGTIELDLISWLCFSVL
T5 sequence (P04632 1-268 partner): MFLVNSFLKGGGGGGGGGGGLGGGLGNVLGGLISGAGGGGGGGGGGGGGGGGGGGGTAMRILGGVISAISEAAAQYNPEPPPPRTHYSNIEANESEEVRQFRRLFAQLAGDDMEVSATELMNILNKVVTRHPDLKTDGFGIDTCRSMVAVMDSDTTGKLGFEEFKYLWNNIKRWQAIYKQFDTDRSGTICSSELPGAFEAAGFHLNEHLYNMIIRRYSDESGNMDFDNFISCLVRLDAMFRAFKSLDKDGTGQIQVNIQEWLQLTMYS
In words: Calpain continuous fluorescence (FRET) inhibition assay. The conditions noted are these: Column B; SensoLyte 520 FRET substrate, pH 7.5, 25C. How it is done:
(§2) Calpain 1, 2, and 9 activity and inhibition thereof was assessed by means of a continuous fluorescence assay. The SensoLyte 520 Calpain substrate (Anaspec Inc.) was optimized for detecting calpain activity. This substrate contains an internally quenched 5-FAM/QXLTM 520 FRET pair. Calpains 1, 2, and 9 cleave the FRET substrate into two separate fragments resulting in an increase of 5-FAM fluorescence that is proportional to calpain activity
(§3) Assays were typically setup in black 384-well plates using automated liquid handling as follows. Calpain assay base buffer typically contains 50 mM Tris, pH 7.5, 100 mM NaCl and 1 mM DTT. Inhibitors were serially diluted in DMSO and used to setup 2× mixtures with calpains in the aforementioned buffer. After incubation at ambient temperature (25C), the reaction was initiated by adding a 2× mix of the fluorescent peptide substrate and CaCl2) (required for in-situ calpain activation) in the same buffer. Reaction progress curve data were typically collected for 10 min using excitation/emission wavelengths of 490 nm/520 nm on SpectraMax i3x or the FLIPR-Tetra plate readers (Molecular Devices Inc.). Reaction rates were calculated from progress curve slopes typically over 1-5 min. Dose response curves (rate vs. log inhibitor concentration) were typically fit to a 4-parameter logistic function to extract IC50 values.

Assay [6] has as its target T6, Human Calpain 9/NS1 (Homo sapiens, UniProt O14815).
T6 sequence (O14815 1-690): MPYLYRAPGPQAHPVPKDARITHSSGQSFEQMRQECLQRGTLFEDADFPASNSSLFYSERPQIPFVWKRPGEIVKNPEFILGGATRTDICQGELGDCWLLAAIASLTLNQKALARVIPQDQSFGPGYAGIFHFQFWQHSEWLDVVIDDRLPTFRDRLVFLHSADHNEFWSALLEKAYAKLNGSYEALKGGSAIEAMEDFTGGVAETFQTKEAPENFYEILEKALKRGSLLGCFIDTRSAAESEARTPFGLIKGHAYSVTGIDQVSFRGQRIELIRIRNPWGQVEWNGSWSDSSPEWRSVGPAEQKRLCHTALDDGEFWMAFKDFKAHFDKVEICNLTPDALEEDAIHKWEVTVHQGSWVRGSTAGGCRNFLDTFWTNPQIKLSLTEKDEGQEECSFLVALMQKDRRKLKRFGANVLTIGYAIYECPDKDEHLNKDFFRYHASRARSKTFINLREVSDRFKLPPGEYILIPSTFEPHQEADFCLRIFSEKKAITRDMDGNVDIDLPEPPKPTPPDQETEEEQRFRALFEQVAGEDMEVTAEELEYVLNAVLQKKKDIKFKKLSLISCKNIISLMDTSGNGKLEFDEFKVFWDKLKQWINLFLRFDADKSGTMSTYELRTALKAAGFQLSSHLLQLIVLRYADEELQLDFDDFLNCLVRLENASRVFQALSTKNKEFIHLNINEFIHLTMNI
T6 sequence (P04632 1-268 partner): T5 sequence (P04632 1-268 partner)
The assay is described as above. The conditions noted are these: Column C; SensoLyte 520 FRET substrate, pH 7.5, 25C. The method, then: as §2, §3

The target of assay [7] is T7, Human Calpain 1/NS1 (Homo sapiens, UniProt P07384).
T7 sequence (P07384 1-714): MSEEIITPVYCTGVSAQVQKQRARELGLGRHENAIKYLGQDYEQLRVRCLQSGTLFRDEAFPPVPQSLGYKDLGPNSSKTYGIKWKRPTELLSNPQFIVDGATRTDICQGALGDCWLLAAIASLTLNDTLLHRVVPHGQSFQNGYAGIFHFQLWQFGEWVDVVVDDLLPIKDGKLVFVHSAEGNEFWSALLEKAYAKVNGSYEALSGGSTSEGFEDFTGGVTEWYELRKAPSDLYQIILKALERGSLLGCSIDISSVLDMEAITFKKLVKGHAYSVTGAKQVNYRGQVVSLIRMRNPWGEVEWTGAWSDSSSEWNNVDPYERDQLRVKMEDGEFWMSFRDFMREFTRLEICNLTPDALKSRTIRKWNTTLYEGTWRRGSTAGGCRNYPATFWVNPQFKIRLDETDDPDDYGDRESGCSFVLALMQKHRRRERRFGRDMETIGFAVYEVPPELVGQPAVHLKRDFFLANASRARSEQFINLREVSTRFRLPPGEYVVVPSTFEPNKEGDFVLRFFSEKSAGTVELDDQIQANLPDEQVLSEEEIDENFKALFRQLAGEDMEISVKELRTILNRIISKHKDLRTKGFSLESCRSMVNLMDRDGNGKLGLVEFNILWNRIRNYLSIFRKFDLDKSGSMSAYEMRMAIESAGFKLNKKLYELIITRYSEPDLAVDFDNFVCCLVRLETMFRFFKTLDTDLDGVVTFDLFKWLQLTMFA
T7 sequence (P04632 1-268 partner): T5 sequence (P04632 1-268 partner)
Described as above. The conditions noted are these: Column A; SensoLyte 520 FRET substrate, pH 7.5, 25C. The method, then:
as §2, §3

Molecules are shown by their SMILES. Where only a bound is given, the exact number is not on record here.

`CCCCCC/C=C\CC(=O)NCC(=O)N[C@H](C(=O)N[C@@H]1/C=C/C(=O)N[C@@H](C(C)C)C(=O)N[C@@H](Cc2ccc(O)cc2)C(=O)OC1)C(C)C` [Compound 10, (Z)—N-(2-(((S)-1-(((3S,6S,11R,E)-3-(4-hydroxybenzyl)-6-isopropyl-2,5,8-trioxo-1-oxa-4,7-diazacyclododec-9-en-11-yl)amino)-3-methyl-1-oxobutan-2-yl)amino)-2-oxoethyl)dec-3-enamide]: the IC50 in assay [1] is below 3 µM; in assay [2], below 3 µM; in assay [3] it was below 3 µM; in assay [4], below 3 µM; in assay [5], below 3 µM; in assay [6] it was above 10 µM. For the same compound, the IC50 in assay [7] is below 3 µM.
Consider `CC(C)[C@@H]1NC(=O)/C=C/[C@@H](NC(=O)[C@H](C)NC(=O)OC(C)(C)C)COC(=O)[C@H](Cc2ccc(O)cc2)NC1=O` [Compound 13, tert-butyl ((s)-1-(((3S,6S,11R,E)-3-(4-hydroxybenzyl)-6-isopropyl-2,5,8-trioxo-1-oxa-4,7-diazacyclododec-9-en-11-yl)amino)-1-oxopropan-2-yl)carbamate], for which the IC50 in assay [1] was below 3 µM; in assay [2], below 3 µM; in assay [3], below 3 µM; in assay [4], below 3 µM; in assay [5], above 10 µM; in assay [6], above 10 µM. The compound further registered a half-inhibitory concentration (IC50) in assay [7] above 10 µM.
Regarding `CC(C)[C@@H]1NC(=O)/C=C/[C@@H](NC(=O)[C@@H](NC(=O)OCc2ccccc2)C(C)C)COC(=O)[C@H](Cc2ccc(O)cc2)NC1=O` [Compound 9, Benzyl ((s)-1-(((3S,6S,11R,E)-3-(4-hydroxybenzyl)-6-isopropyl-2,5,8-trioxo-1-oxa-4,7-diazacyclododec-9-en-11-yl)amino)-3-methyl-1-oxobutan-2-yl)carbamate], the IC50 is below 3 µM in assay [1]; below 3 µM in assay [2]; below 3 µM in assay [3]; below 3 µM in assay [4]; below 3 µM in assay [5]; above 10 µM in assay [6]. This compound showed an IC50 in assay [7] of 3 to 10 µM.
As to `CC(C)[C@@H]1NC(=O)/C=C/[C@@H](NC(=O)[C@@H](NC(=O)OC(C)(C)C)C(C)C)COC(=O)[C@H](Cc2ccc(O)cc2)NC1=O` [Compound 2, Tert-butyl ((S)-1-(((3S,6S,11R,E)-3-(4-hydroxybenzyl)-6-isopropyl-2,5,8-trioxo-1-oxa-4,7-diazacyclododec-9-en-11-yl)amino)-3-methyl-1-oxobutan-2-yl)carbamate], the half-maximal inhibitory concentration (IC50) in assay [1] is below 3 µM; in assay [2] it was below 3 µM; in assay [3], below 3 µM; in assay [4], below 3 µM; in assay [5], below 3 µM; in assay [6], above 10 µM. For the same compound, the IC50 in assay [7] was in the range of 3 to 10 µM.
In the case of `CC(C)[C@@H]1NC(=O)/C=C/[C@@H](NC(=O)[C@H](Cc2ccccc2)NC(=O)OC(C)(C)C)COC(=O)[C@H](Cc2ccc(O)cc2)NC1=O` [Compound 14, tert-butyl ((s)-1-(((3S,6S,11R,E)-3-(4-hydroxybenzyl)-6-isopropyl-2,5,8-trioxo-1-oxa-4,7-diazacyclododec-9-en-11-yl)amino)-1-oxo-3-phenylpropan-2-yl)carbamate], the IC50 in assay [1] was below 3 µM; in assay [2], below 3 µM; in assay [3], below 3 µM; in assay [4], 3 to 10 µM; in assay [5] it was above 10 µM; in assay [6] it was above 10 µM. In addition, in assay [7], the IC50 was above 10 µM.
`CC(C)[C@@H]1NC(=O)/C=C/[C@@H](NC(=O)[C@@H](NC(=O)[C@H](Cc2ccc(O)cc2)NC(=O)OC(C)(C)C)C(C)C)COC(=O)[C@H](C)NC1=O` [Compound 17, Tert-butyl ((S)-3-(4-hydroxyphenyl)-1-(((S)-1-(((3S,6S,11R,E)-6-isopropyl-3-methyl-2,5,8-trioxo-1-oxa-4,7-diazacyclododec-9-en-11-yl)amino)-3-methyl-1-oxobutan-2-yl)amino)-1-oxopropan-2-yl)carbamate]: the half-inhibitory concentration (IC50) in assay [1] is below 3 µM; in assay [2], below 3 µM; in assay [3] it was below 3 µM; in assay [4], below 3 µM; in assay [5] it was below 3 µM; in assay [6] it was above 10 µM. The same compound returned an IC50 in assay [7] below 3 µM.
